Experimental data reported in US7521580B1, “Non-cytotoxic synthetic analogues of (1E, 6E)-1, 7-Bis (4-hydroxy-3-methoxyphenyl)-1, 6-heptadiene-3, 5-Dione and therapeutic applications thereof in cystic fibrosis” (Sami Labs Ltd., priority 2008, dated 2009).

Tests used:
[1] = test system: JME/CF15 cells; assay: Intracellular calcium mobilization (Fluo-4, confocal microscopy) in JME/CF15 cells; type: cell-based, human; settings: 100 μM during 2 h, absence of extra cellular calcium
From the text: A number of epithelial chloride channels are calcium dependent. Therefore molecules which increase cytosolic calcium release or reduce calcium re-uptake by the intracellular stores may be beneficial to increase chloride secretion via a calcium-regulated chloride signaling pathway. Alternatively, a decrease in the activity calcium dependant proteins playing a vital role in retaining misfolded F508-CFTR in the ER may also seem a promising strategy in cystic fibrosis therapy.
JME/CF15 cells were loaded with 3 μM Fluo-4 acetoxymethyl (AM)ester for 20 min at room temperature in buffer solution containing: (in mM) 130 NaCl, 5.4 KCl, 2.5 CaCl2, 0.8 MgCl2, 5.6 glucose, 10 Hepes, pH 7.4 adjusted with Tris base), rinsed and allowed to equilibrate for 5-10 min. Ca2+ activity was recorded by confocal laser scanning microscopy using Bio-Rad MRC 1024 equipped with 15 mW Ar/Kr gas laser (Hemel Hempstead, UK). Maximal resolution was obtained with Olympus plan apo X60 oil, 1.4 NA, objective lens. Fluorescence signal collection was performed through the control software Lasersharp 3.2 (Bio-Rad). The resolution time was 30 s for the protocol in which cells are incubated 2 h in the presence of (1E,6E)-1,7-Bis(3,5-di-tert-butyl-4-hydroxyphenyl)-1,6-heptadiene-3,5-dione. All the experiments were performed at minimum on two different cell passages. […]

[2] = target: T1, F508del-CFTR chloride channel (Homo sapiens, UniProt P13569, DEL508-508); assay: Radiolabelled iodide efflux, F508del-CFTR chloride channel activity in JME/CF15 cells; type: cell-based; settings: 100 μM for 2 hours, stimulated with forskolin 10 μM plus genistein 30 μM
T1 construct: endogenous in cells; host or cells: JME/CF15 human nasal airway epithelial cells
Procedure: (§1) The human nasal airway epithelial cells JME/CF15 were cultured in 24-well plates to 90% confluence. (1E,6E)-1,7-Bis(3,5-di-tert-butyl-4-hydroxyphenyl)-1,6-heptadiene-3,5-dione was added at 100 μM for 2 hours, at 37° C., 5% CO2. After incubation, chloride channel activity was assayed by measuring the rate of radio labelled iodide (125 l) efflux using liquid handling robots. The compound was tested in quadruplicate. Cells were incubated in physiologic solution containing 1 μM Kl and 1 μCi Na 125 l/ml during 1 h at 37° C. Extra cellular 125 l was removed by 3 washes of cells, and the loss of intracellular 125 l is determined by removing the medium with physiological solution every minute for up to 9 min 6. A cocktail of forskolin (10 μM) plus genistein (30 μM) was added at the third minute to stimulate F508del-CFTR chloride channel activity. Statistics and curves were derived at using Graph Pad Software.

[3] = MTT assay of cellular cytotoxicity; type: cell-based; settings: Chinese hamster, CHO-CFTR-wt cells, read-out: TC50; for CC50 at 2 h: 2 h incubation; for CC50 at 24 h: 24 h incubation
Procedure: The cytotoxicity of (1E,6E)-1,7-Bis(3,5-di-tert-butyl-4-hydroxyphenyl)-1,6-heptadiene-3,5-dione (representative of the molecules disclosed in the present invention) was assessed by MTT assay [[3-(4,5-dimethylthiazol-2-yl)-2,5-diphenyl tetrazolium bromide, measuring cellular dehydrogenase activity on CHO-CFTR-wt cell lines. The test is based on the principle that water soluble tetrazolium yellow salt MTT (Sigma®) is converted on purple formazan by mitochondrial dehydrogenase. Cells were grown to confluency in 96-well plates. After incubation with the test compound for 2 or 24 hours, at 37° C., […] of MTT (5 mg/ml) was added. After 4 h of incubation, culture medium was removed and 100 μl of DMSO per well added to solubilise formazan crystals. Optical density (OD) was measured at 570 nm and subtracted to these measured at 630 nm. The amount of purple formazan produced by treated cells is compared with these of untreated control cells (vehicle), dose-response curves were derived using GraphPad Software.

[4] = target: T2, wt-CFTR channel (Homo sapiens, UniProt P13569); assay: Iodide efflux, wild type CFTR chloride channel activity in CHO-CFTR-wt cells; type: cell-based; settings: 100 μM acute (no incubation) in presence of Forskolin 1 μM
T2 construct: expressed in transfected cells; host or cells: CHO-CFTR-wt cells
Procedure: as §1
To test the potency to stimulate wt-CFTR channel activity, CHO-CFTR-wt cells were cultured in 24-well plates to 90% confluence. Iodide efflux experiments were carried as described above. (1E,6E)-1,7-Bis(3,5-di-tert-butyl-4-hydroxyphenyl)-1,6-heptadiene-3,5-dione was added in the third minute in the presence or absence of Forskolin (1 μM). The compound was tested in acute (no incubation) at 100 μM in presence of Forskolin 1 μM. […]

T2 sequence (P13569 whole entry): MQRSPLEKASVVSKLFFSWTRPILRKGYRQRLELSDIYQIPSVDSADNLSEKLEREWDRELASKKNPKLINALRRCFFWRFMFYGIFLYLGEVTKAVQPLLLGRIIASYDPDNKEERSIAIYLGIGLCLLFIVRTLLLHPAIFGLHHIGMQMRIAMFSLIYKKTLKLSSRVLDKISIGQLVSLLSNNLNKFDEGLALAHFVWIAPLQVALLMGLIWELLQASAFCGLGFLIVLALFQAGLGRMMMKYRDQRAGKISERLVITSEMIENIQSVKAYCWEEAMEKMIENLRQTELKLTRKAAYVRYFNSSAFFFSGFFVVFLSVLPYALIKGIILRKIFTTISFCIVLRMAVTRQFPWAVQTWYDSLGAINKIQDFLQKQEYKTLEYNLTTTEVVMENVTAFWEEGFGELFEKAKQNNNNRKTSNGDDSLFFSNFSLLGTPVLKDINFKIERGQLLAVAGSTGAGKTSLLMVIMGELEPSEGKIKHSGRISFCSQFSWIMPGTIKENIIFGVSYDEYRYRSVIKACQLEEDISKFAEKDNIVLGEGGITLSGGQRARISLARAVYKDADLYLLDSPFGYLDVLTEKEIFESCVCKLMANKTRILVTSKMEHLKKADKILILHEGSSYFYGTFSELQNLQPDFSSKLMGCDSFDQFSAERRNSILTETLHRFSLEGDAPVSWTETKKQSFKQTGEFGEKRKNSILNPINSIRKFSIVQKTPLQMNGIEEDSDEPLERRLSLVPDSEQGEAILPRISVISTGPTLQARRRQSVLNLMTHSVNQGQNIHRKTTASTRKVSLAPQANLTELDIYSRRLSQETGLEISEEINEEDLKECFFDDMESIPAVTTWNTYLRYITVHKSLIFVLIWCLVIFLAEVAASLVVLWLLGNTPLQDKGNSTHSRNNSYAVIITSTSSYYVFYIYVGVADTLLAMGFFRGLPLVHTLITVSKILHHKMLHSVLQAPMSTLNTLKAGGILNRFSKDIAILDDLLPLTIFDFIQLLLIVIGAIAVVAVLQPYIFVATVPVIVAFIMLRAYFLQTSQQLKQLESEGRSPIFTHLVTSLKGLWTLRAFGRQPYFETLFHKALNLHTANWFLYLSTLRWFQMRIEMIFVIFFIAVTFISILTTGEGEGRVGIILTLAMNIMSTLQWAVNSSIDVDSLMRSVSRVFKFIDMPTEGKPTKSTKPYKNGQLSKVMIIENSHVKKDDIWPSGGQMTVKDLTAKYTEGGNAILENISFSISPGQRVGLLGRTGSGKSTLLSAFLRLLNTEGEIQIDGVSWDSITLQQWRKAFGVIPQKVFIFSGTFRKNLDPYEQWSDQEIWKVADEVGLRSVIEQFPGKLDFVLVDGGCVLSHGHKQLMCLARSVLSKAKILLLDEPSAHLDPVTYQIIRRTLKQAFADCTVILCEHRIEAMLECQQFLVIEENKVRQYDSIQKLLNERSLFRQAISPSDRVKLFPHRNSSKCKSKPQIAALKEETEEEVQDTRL
T1 sequence (P13569 with tags, fused parts or gaps DEL508-508): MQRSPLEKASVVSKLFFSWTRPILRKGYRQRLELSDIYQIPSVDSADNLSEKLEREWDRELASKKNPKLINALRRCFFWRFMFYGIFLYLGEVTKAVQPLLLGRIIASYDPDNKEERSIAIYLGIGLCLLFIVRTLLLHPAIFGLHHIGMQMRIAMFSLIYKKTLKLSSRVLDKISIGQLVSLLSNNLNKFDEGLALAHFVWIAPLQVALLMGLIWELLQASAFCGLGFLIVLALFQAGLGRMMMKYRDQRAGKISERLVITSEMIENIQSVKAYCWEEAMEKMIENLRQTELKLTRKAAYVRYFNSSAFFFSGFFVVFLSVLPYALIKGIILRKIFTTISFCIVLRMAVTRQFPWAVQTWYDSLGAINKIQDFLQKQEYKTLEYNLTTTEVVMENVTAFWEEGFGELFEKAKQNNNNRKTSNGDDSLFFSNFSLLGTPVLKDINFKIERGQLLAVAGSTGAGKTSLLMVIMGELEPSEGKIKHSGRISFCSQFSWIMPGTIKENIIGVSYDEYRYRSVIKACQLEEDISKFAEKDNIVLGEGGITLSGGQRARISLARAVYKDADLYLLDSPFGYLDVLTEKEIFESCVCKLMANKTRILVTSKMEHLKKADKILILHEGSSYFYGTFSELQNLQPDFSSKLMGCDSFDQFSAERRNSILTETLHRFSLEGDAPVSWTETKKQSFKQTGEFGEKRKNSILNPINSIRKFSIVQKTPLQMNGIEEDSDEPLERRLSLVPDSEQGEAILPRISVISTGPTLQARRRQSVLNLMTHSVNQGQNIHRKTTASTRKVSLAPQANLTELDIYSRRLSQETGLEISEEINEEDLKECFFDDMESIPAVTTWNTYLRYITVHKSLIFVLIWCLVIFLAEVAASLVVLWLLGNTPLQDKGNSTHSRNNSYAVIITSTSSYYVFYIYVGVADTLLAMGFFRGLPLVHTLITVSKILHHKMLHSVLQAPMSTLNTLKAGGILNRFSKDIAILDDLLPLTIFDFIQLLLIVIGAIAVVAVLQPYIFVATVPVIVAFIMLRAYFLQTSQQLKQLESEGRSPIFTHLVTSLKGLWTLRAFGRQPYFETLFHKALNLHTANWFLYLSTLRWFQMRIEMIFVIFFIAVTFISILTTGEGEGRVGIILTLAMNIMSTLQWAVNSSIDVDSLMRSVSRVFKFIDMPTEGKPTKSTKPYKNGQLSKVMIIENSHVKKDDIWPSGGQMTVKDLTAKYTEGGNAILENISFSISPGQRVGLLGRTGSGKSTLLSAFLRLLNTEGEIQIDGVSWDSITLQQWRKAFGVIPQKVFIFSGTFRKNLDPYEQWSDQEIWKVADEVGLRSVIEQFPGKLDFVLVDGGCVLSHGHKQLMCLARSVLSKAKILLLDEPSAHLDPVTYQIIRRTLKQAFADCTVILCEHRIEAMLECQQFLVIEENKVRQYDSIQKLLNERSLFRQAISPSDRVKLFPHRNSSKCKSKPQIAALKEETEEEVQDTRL

melting point [°C]	Structure (SMILES)	intracellular mobilization of Ca2+ [1]	restoration of F508del-CFTR protein at the plasma membrane (iodide efflux) [2]	CC50 at 2 h [3] [µM]	CC50 at 24 h [3] [µM]	wild-type CFTR chloride channel activity [4]
192 to 196	CC(C)(C)c1cc(/C=C/C(=O)CC(=O)/C=C/c2cc(C(C)(C)C)c(O)c(C(C)(C)C)c2)cc(C(C)(C)C)c1O [(1E,6E)-1,7-Bis(3,5-di-tert-butyl-4-hydroxyphenyl)-1,6-heptadiene-3,5-dione]	induced intracellular mobilization of Ca^2+	able to restore the F508del-CFTR protein at the plasma membrane of CF cells	> 100	> 100	insignificant wild-type CFTR chloride channel activity
–	COc1cc(/C=C/C(=O)CC(=O)/C=C/c2ccc(O)c(OC)c2)ccc1O [Curcumin, (1E,6E)-1,7-Bis(4-hydroxy-3-methoxyphenyl)-1,6-heptadiene-3,5-dione, reference compound]	–	–	50.1 ± 1.1	42.7 ± 1	–
